Here are results for two molecules from US8597904B2, “Pharmaceutical compositions for the treatment of conditions responsive to proteasome inhibition” (priority 2007, dated 2013).

Where two headings read alike, the source gives them in different places.

For assay [1], the system named is SK-N-SH cells. The assay is described as follows: CellTiter 96 Aqueous One (MTS) cell proliferation assay. The format is cell-based, human. How it is done: (§1) The CellTiter 96 Aqueous One solution Cell Proliferation Assay (2-(4,5-dimethylthiazol-2-yl)-5-(3-carboxymethoxyphenyl)-2-(4-sulfophenyl)-2H-tetrazolium, inner salt; MTS) (Promega, San Luis Obispo, Calif.) was used to determine the viability of cells treated with GlbA and SylA. Briefly, SK-N-SH and SKOV3 cells were seeded in clear, 96 well plates, as described (Example 11), and cultured for 18-24 hours. Ten μl GlbA or SylA were added at different concentrations (0-100 μM) and incubated for 48 hours. After the experiment, 20 uL of tetrazolium CellTiter 96 Aqueous One Solution Reagent was added to wells, incubated for 75-150 min. at 37° C. The absorbance was measured at 490 nm using a Perkin Elmer HTS7000 Plus bioassay reader.

Assay [2] concerns SKOV3 cells. The description is as above. The format is cell-based, human. How it is done:
as §1

For assay [3], the system named is microtubule-associated protein 1 light chain 3 (LC3). The assay is described as follows: immunoblot of LC3 conversion (autophagy) in SK-N-SH cells. The format is cell-based, human. Here is the method:
To verify whether autophagy is induced in GlbA-treated cells, levels of microtubule-associated protein 1 light chain 3 (LC3), a reliable marker of autophagosomes, were measured. […] Therefore, this characteristic conversion of LC3 can be used to monitor autophagic activity. SK-N-SH cells were treated with GlbA in the presence or absence of 3-MA, and cell lysates were probed with LC3.

A further assay has as its system Rat-1 fibroblasts cells. The experiment in a line: sulphorhodamine B (SRB) cell viability / proliferation assay. The format is cell-based. Here is the method:
To then test the effects of syringolin A on proliferation, cells at 0.25-0.5×10^5 cells per ml were seeded in 96-well microtiter plates containing 100 μl of culture medium per well. After 24 hours, syringolin A was added to wells to a final concentration of 0.5 μm to 100 μm. Syringolin was not added to parallel samples of control cells. Cells were incubated for 48 hours, photographed, and the viability of cells (calculated as a percentage of control cell counts) was determined using the sulphorhodamine B (SRB) assay as previously reported (Skehan, et al. 1990. J. Natl. Cancer Inst. 82:1107-1112, which is incorporated herein by reference in its entirety). In brief, cell culture medium was removed from the microtiter plate and adherent cells were fixed with 10% (w/v) trichloracetic acid (TCA) for 30 minutes at room temperature. Following four washes with tap water, 100 μl of SRB (Sigma Chemical Co., St. Louis, Mo.) (0.4 g/100 ml 1% [v/v] glacial acetic acid in water) was added and the plate was then incubated for 30 minutes at room temperature, and rinsed four times with 3% (v/v) glacial acetic acid. […] The absorption at a wavelength of 560 nm was read using an HTS 7000 Plus Bioassay Reader or a Victor 3, 1420 Multilabel Counter (PerkinElmer, Inc. Boston, Mass.). […]

For assay [4], the system named is SK-N-SH cells. The settings on record: values from previous studies with SylA (Coleman et al. 2006); cited from earlier work.
Assay [5] relates to SKOV3 cells. Particulars: values from previous studies with SylA (Coleman et al. 2006); cited from earlier work.

`CCCCCCC/C=C/C=C/C(=O)N[C@H](C(=O)N[C@H]1C[C@@H](O)CCNC(=O)/C=C/[C@H](C)NC1=O)[C@@H](C)O` [glidobactin A]: the cell morphology result in the assay on SK-N-SH cells [1] (48 hours) is “severe morphological changes”; with SKOV3 cells [2] (SKOV3, 48 hours), “severe morphological changes”. Also, the EC50 – broadly, the concentration that produces a half-maximal response – in the assay on SK-N-SH cells [1] (Homo sapiens, 48 hours, MTS) is about 0.14 µM; with SKOV3 cells [2] (Homo sapiens, SK-OV-3, 48 hours, MTS) it was about 0.8 µM. For the same molecule, the “effectiveness of GlbA relative to SylA” value in the assay with SK-N-SH cells [1] (ratio of EC50) was “about 143 fold”; with SKOV3 cells [2] (SKOV3, ratio of EC50), about 25 fold. The “GlbA-induced autophagy after pre-treatment with 3-MA” value in assay [3] (GlbA with 3-MA pre-treatment) was “reverted GlbA-induced autophagy”. Moreover, in assay [3] (compared to untreated control cells), the “LC3-II amount / conversion of LC3” value is “larger amounts of LC3-II”.

Take `CC(C)[C@H](NC(=O)N[C@H](C(=O)N[C@H]1/C=C/CCNC(=O)/C=C/[C@H](C(C)C)NC1=O)C(C)C)C(=O)O` [syringolin A]: the cell morphology result in the assay with Rat-1 fibroblasts cells (Rat-1, 25 μM, no detachment or floating cells) is on record as “affected the cell morphology”. Besides, the cell proliferation rate entry in the assay with Rat-1 fibroblasts cells (Rat-1, dose-dependent) is reported as “reduced the cell proliferation rate”. Also, the EC50 with SK-N-SH cells [4] and in the assay on SKOV3 cells [5] was about 20 µM in each case.
